Results: the NIST ThermoML archive (doi:10.1021/je500977g)

Experiment: mn = molality of the nth substance listed, in mol/kg
Details: Liquid

C[N+](C)(C)[O-] [trimethylamine oxide] + O
mass density [kg/m3]
Details	278.15 K	288.15 K	298.15 K	308.15 K	323.15 K
101 kPa, Vibrating tube method, m1 = 0.0875	1000.16	999.28	997.22	994.21	988.2
101 kPa, Vibrating tube method, m1 = 0.1707	1000.36	999.46	997.4	994.38	988.37
101 kPa, Vibrating tube method, m1 = 0.2465	1000.55	999.63	997.57	994.54	988.53
101 kPa, Vibrating tube method, m1 = 0.3259	1000.75	999.82	997.74	994.71	988.7
101 kPa, Vibrating tube method, m1 = 0.4018	1000.95	1000	997.91	994.88	988.86
101 kPa, Vibrating tube method, m1 = 0.5862	1001.48	1000.47	998.35	995.31	989.27
101 kPa, Vibrating tube method, m1 = 0.7963	1002.11	1001.02	998.86	995.8	989.75
101 kPa, Vibrating tube method, m1 = 1.039	1002.89	1001.71	999.49	996.41	990.34
101 kPa, Vibrating tube method, m1 = 1.373	1004.01	1002.7	1000.4	997.27	991.15
101 kPa, Vibrating tube method, m1 = 1.923	1006.05	1004.48	1002.01	998.77	992.62
101 kPa, Vibrating tube method, m1 = 3.259	1011.69	1009.4	1006.44	1002.83	996.37
101 kPa, Vibrating tube method, m1 = 4.325	1016.41	1013.58	1010.2	1006.27	999.45
10000 kPa, Constant-volume piezometry, m1 = 0.1707	1005.1	1003.98	1001.77	998.64	992.59
10000 kPa, Constant-volume piezometry, m1 = 0.3259	1005.43	1004.27	1002.05	998.93	992.87
10000 kPa, Constant-volume piezometry, m1 = 0.5862	1006.05	1004.81	1002.57	999.44	993.35
10000 kPa, Constant-volume piezometry, m1 = 1.039	1007.25	1005.85	1003.56	1000.4	994.29
10000 kPa, Constant-volume piezometry, m1 = 1.373	1008.19	1006.74	1004.38	1001.17	995.02
10000 kPa, Constant-volume piezometry, m1 = 1.923	1009.95	1008.34	1005.83	1002.54	996.38
10000 kPa, Constant-volume piezometry, m1 = 3.259	1015.17	1012.89	1009.93	1006.31	999.89
10000 kPa, Constant-volume piezometry, m1 = 4.325	1019.59	1016.87	1013.44	1009.52	1002.81
25000 kPa, Constant-volume piezometry, m1 = 0.1707	1012.1	1010.63	1008.19	1004.94	998.81
25000 kPa, Constant-volume piezometry, m1 = 0.3259	1012.31	1010.83	1008.39	1005.15	999.01
25000 kPa, Constant-volume piezometry, m1 = 0.5862	1012.75	1011.2	1008.79	1005.53	999.37
25000 kPa, Constant-volume piezometry, m1 = 1.039	1013.68	1012.01	1009.58	1006.27	1000.14
25000 kPa, Constant-volume piezometry, m1 = 1.373	1014.44	1012.71	1010.25	1006.92	1000.75
25000 kPa, Constant-volume piezometry, m1 = 1.923	1015.88	1014.05	1011.48	1008.08	1001.93
25000 kPa, Constant-volume piezometry, m1 = 3.259	1020.33	1018.05	1015.13	1011.45	1005.1
25000 kPa, Constant-volume piezometry, m1 = 4.325	1024.4	1021.69	1018.32	1014.35	1007.83
50000 kPa, Constant-volume piezometry, m1 = 0.1707	1023.24	1021.25	1018.48	1015.02	1008.75
50000 kPa, Constant-volume piezometry, m1 = 0.3259	1023.31	1021.31	1018.55	1015.1	1008.83
50000 kPa, Constant-volume piezometry, m1 = 0.5862	1023.5	1021.47	1018.73	1015.28	1009.01
50000 kPa, Constant-volume piezometry, m1 = 1.039	1023.97	1021.88	1019.17	1015.72	1009.49
50000 kPa, Constant-volume piezometry, m1 = 1.373	1024.42	1022.31	1019.6	1016.14	1009.9
50000 kPa, Constant-volume piezometry, m1 = 1.923	1025.37	1023.22	1020.48	1016.98	1010.79
50000 kPa, Constant-volume piezometry, m1 = 3.259	1028.7	1026.33	1023.44	1019.69	1013.38
50000 kPa, Constant-volume piezometry, m1 = 4.325	1032.12	1029.39	1026.18	1022.07	1015.77
75000 kPa, Constant-volume piezometry, m1 = 0.1707	1033.79	1031.35	1028.27	1024.62	1018.2
75000 kPa, Constant-volume piezometry, m1 = 0.3259	1033.7	1031.27	1028.22	1024.58	1018.18
75000 kPa, Constant-volume piezometry, m1 = 0.5862	1033.63	1031.21	1028.19	1024.56	1018.19
75000 kPa, Constant-volume piezometry, m1 = 1.039	1033.68	1031.28	1028.3	1024.68	1018.41
75000 kPa, Constant-volume piezometry, m1 = 1.373	1033.85	1031.46	1028.51	1024.9	1018.64
75000 kPa, Constant-volume piezometry, m1 = 1.923	1034.37	1031.97	1029.06	1025.43	1019.23
75000 kPa, Constant-volume piezometry, m1 = 3.259	1036.77	1034.24	1031.32	1027.51	1021.32
75000 kPa, Constant-volume piezometry, m1 = 4.325	1039.49	1036.73	1033.57	1029.5	1023.38
100000 kPa, Constant-volume piezometry, m1 = 0.1707	1043.78	1040.95	1037.61	1033.77	1027.22
100000 kPa, Constant-volume piezometry, m1 = 0.3259	1043.57	1040.74	1037.41	1033.59	1027.09
100000 kPa, Constant-volume piezometry, m1 = 0.5862	1043.26	1040.48	1037.18	1033.39	1026.94
100000 kPa, Constant-volume piezometry, m1 = 1.039	1042.96	1040.22	1036.99	1033.25	1026.92
100000 kPa, Constant-volume piezometry, m1 = 1.373	1042.87	1040.16	1036.98	1033.26	1027
100000 kPa, Constant-volume piezometry, m1 = 1.923	1043.01	1040.3	1037.22	1033.48	1027.3
100000 kPa, Constant-volume piezometry, m1 = 3.259	1044.64	1041.8	1038.74	1034.99	1028.88
100000 kPa, Constant-volume piezometry, m1 = 4.325	1046.85	1043.78	1040.54	1036.64	1030.78
